{
  "source": "paper PMC3040809",
  "about": "(Amino Acids, 2010)",
  "key": {"hOGT": {"biological_target": "T1, hOGT (Homo sapiens, UniProt O15294)", "T1 sequence (O15294 26-1036 isoform O15294-3)": "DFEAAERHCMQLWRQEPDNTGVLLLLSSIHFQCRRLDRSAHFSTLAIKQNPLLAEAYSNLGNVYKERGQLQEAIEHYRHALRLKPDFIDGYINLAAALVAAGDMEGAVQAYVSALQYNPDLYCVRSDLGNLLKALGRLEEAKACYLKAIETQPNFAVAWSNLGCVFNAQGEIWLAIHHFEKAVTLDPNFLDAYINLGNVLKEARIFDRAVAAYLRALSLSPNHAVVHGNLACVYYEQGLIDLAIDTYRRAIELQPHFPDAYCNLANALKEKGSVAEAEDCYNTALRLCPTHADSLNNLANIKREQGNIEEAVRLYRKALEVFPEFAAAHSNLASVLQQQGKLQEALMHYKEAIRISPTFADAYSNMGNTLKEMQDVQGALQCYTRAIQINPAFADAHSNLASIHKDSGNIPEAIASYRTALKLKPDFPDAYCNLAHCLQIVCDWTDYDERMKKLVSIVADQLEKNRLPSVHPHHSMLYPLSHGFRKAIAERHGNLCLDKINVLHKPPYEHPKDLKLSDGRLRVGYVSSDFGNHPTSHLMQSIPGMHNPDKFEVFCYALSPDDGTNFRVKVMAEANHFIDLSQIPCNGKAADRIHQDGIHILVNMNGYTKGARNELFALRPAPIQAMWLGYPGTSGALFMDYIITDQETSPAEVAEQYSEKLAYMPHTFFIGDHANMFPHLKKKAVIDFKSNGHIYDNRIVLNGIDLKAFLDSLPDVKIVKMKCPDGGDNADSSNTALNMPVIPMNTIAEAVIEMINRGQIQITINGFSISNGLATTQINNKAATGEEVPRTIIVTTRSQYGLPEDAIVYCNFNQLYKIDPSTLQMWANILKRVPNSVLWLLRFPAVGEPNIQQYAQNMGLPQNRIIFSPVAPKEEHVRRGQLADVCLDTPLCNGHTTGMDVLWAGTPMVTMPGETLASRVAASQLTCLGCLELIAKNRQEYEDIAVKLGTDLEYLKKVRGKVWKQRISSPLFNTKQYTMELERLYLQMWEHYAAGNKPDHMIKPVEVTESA", "format": "biochemical"}, "[1]": {"conditions": "physiological pH; ref Lenzen and Munday [1991]; cited from earlier work"}, "[2]": {"tested_on": "cellular levels of O-GlcNAcylation", "conditions": "ref Liu et al. [2005], [2006], [2007]; Noach et al. [2007]; Kang et al. [2008]; cited from earlier work"}},
  "data": [
    {"smiles": "O=C1NC(=O)C(=O)C(=O)N1", "note": "[Alloxan]", "values": [
      {"measurement": "IC50", "setting": "hOGT", "result": "18 ± 1", "unit": "µM"},
      {"measurement": "half-life time", "setting": "[1]", "result": 1.5, "unit": "min"},
      {"measurement": "concentration required to decrease cellular levels of O-GlcNAcylation", "setting": "[2]", "result": "millimolar concentrations"}
    ]}
  ]
}
